Inconclusive results and toxic doses are left out. Rule for the calls: active = survival T/C of 150% or more; inactive = T/C below 125% in these data.
Test system: CD2F1 mice, L1210 leukemia ip, survival T/C
Test: NCI In Vivo Anticancer Drug Screen. Data for tumor model L1210 Leukemia (intraperitoneal) in CD2F1 (CDF1) mice
Settings: endpoint: mean survival time, higher = longer survival
Procedure, shortened: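 Transplantable tumor in mice; compound-treated vs vehicle-treated groups. Read-out = treated/control ratio of the measured endpoint.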

[1] = dose: 75.0 mg/kg/injection, schedule: Q01DX001 (ip), vehicle: saline
[2] = dose: 150.0 mg/kg/injection, schedule: Q01DX001 (ip), vehicle: saline
[3] = dose: 100.0 mg/kg/injection, schedule: Q01DX009 (ip), vehicle: saline with Tween-80
[4] = dose: 100.0 mg/kg/injection, schedule: Q04DX003 (ip), vehicle: saline with Tween-80
[5] = dose: 200.0 mg/kg/injection, schedule: Q01DX009 (ip), vehicle: saline with Tween-80
[6] = dose: 200.0 mg/kg/injection, schedule: Q04DX003 (ip), vehicle: saline with Tween-80
[7] = dose: 400.0 mg/kg/injection, schedule: Q01DX009 (ip), vehicle: saline with Tween-80
[8] = dose: 400.0 mg/kg/injection, schedule: Q04DX003 (ip), vehicle: saline with Tween-80
[9] = dose: 100.0 mg/kg/injection, schedule: Q01DX001 (ip), vehicle: saline with Tween-80
[10] = dose: 200.0 mg/kg/injection, schedule: Q01DX001 (ip), vehicle: saline with Tween-80
[11] = dose: 400.0 mg/kg/injection, schedule: Q01DX001 (ip), vehicle: saline with Tween-80
[12] = dose: 100.0 mg/kg/injection, schedule: Q04DX003 (ip), vehicle: saline

Measured: T/C

Nc1ccc(OCc2ccc(C(=O)Nc3cccc(S(=O)(=O)F)c3)cc2)c(Cl)c1
inactive: dose: 100.0 mg/kg/injection, schedule: Q01DX009 (ip), vehicle: saline sonified 91 % of control | dose: 200.0 mg/kg/injection, schedule: Q01DX009 (ip), vehicle: saline sonified 95 % of control | dose: 400.0 mg/kg/injection, schedule: Q01DX009 (ip), vehicle: saline sonified 93 % of control

CC1CN(C2(c3ccccc3)CCCCC2)CCC12OCCO2 (centres undefined)
inactive: dose: 100.0 mg/kg/injection, schedule: Q04DX002 (ip), vehicle: saline with Tween-80 93 % of control | dose: 200.0 mg/kg/injection, schedule: Q04DX002 (ip), vehicle: saline with Tween-80 97 % of control

CCCCCCCCCCCCOCCC(=O)O
inactive: dose: 75.0 mg/kg/injection, schedule: Q04DX003 (ip), vehicle: saline 97 % of control | dose: 150.0 mg/kg/injection, schedule: Q04DX003 (ip), vehicle: saline 103 % of control | dose: 300.0 mg/kg/injection, schedule: Q04DX003 (ip), vehicle: saline 95 % of control

CC(=N\[O-])/C(C)=N/O.CC(=N\[O-])/C(C)=N/O.CC(=O)[O-].CC(=O)[O-].O.[Rh+2].[Rh+2]
inactive: dose: 0.78 mg/kg/injection, schedule: Q01DX009 (ip), vehicle: saline 88 % of control | dose: 3.13 mg/kg/injection, schedule: Q01DX009 (ip), vehicle: saline 96 % of control | dose: 6.25 mg/kg/injection, schedule: Q01DX009 (ip), vehicle: saline 91 % of control | dose: 12.5 mg/kg/injection, schedule: Q01DX009 (ip), vehicle: Klucel (hydroxypropylcellulose) (HPC) 95 % of control | dose: 12.5 mg/kg/injection, schedule: Q01DX009 (ip), vehicle: saline 93 % of control

CC(=O)C(N=Nc1cccc2c1C(=O)c1cccc(Cl)c1C2=O)C(=O)Nc1ccccc1Cl (centres undefined)
inactive: [1] 89 % of control | [2] 95 % of control

O=C1C=C(N2CCOCC2)c2ccccc2C1=O
inactive: [1] 100 % of control | [2] 94 % of control

c1ccc(CC23CCCCC2N3)cc1 (centres undefined)
inactive: dose: 100.0 mg/kg/injection, schedule: Q01DX001 (ip), vehicle: saline sonified 96 % of control | dose: 200.0 mg/kg/injection, schedule: Q01DX001 (ip), vehicle: saline sonified 94 % of control

CCCCCCSC(=O)NC(C)=O
inactive: [3] 92 % of control | [4] 91 % of control | [5] 94 % of control | [6] 94 % of control | [7] 106 % of control | [8] 94 % of control

CCOC(=O)Nc1cc(Cl)c2nnn(C3OC(CO)C(O)C3O)c2n1 (centres undefined)
inactive: dose: 12.5 mg/kg/injection, schedule: Q01DX005 (ip), vehicle: water 90 % of control | dose: 25.0 mg/kg/injection, schedule: Q01DX005 (ip), vehicle: water 94 % of control | dose: 50.0 mg/kg/injection, schedule: Q01DX005 (ip), vehicle: water 86 % of control | dose: 100.0 mg/kg/injection, schedule: Q01DX005 (ip), vehicle: water 96 % of control | dose: 200.0 mg/kg/injection, schedule: Q01DX005 (ip), vehicle: water 90 % of control

CCCCCCC(=C/c1ccccc1)/C=N/NC(=O)c1ccc[n+](C)c1
inactive: [4] 98 % of control

CC1CCC(C)C([N+](C)(C)C)C1 (centres undefined)
inactive: dose: 12.5 mg/kg/injection, schedule: Q01DX001 (ip), vehicle: saline 102 % of control | dose: 25.0 mg/kg/injection, schedule: Q01DX001 (ip), vehicle: saline 110 % of control | dose: 50.0 mg/kg/injection, schedule: Q01DX001 (ip), vehicle: saline 100 % of control

CCN(CC)CCNc1cc(OC)cc2cccnc12
inactive: dose: 6.25 mg/kg/injection, schedule: Q04DX002 (ip), vehicle: saline 98 % of control | dose: 12.5 mg/kg/injection, schedule: Q04DX002 (ip), vehicle: saline 98 % of control | dose: 25.0 mg/kg/injection, schedule: Q04DX002 (ip), vehicle: saline 95 % of control

CCCCCCCCCCCCCCCCOc1ccc(C(C)=O)cc1
inactive: [5] 89 % of control | [7] 96 % of control

Nc1nc(NNC(=O)CCCO)c2nonc2n1
inactive: dose: 9.4 mg/kg/injection, schedule: Q01DX005 (ip), vehicle: other 97 % of control | dose: 18.8 mg/kg/injection, schedule: Q01DX005 (ip), vehicle: other 109 % of control | dose: 37.5 mg/kg/injection, schedule: Q01DX005 (ip), vehicle: other 105 % of control | dose: 75.0 mg/kg/injection, schedule: Q01DX005 (ip), vehicle: other 105 % of control | dose: 150.0 mg/kg/injection, schedule: Q01DX005 (ip), vehicle: other 105 % of control

N#CCCOCCNCCSC(=O)c1ccccc1
inactive: [4] 95 % of control | [6] 101 % of control | [8] 95 % of control

Sc1ccc(Cl)cc1
inactive: [9] 98 % of control | [10] 98 % of control | [11] 102 % of control

COc1cc(NC(=O)Nc2ccc(S(N)(=O)=O)cc2)c(Cl)c(OC)c1
inactive: [3] 95 % of control | [5] 95 % of control | [7] 104 % of control

O=C(/C(=C/c1ccccc1)CN1CCOCC1)c1ccccc1
inactive: dose: 25.0 mg/kg/injection, schedule: Q01DX009 (ip), vehicle: Klucel (hydroxypropylcellulose) (HPC) 101 % of control | dose: 50.0 mg/kg/injection, schedule: Q01DX009 (ip), vehicle: Klucel (hydroxypropylcellulose) (HPC) 105 % of control | dose: 100.0 mg/kg/injection, schedule: Q01DX009 (ip), vehicle: Klucel (hydroxypropylcellulose) (HPC) 91 % of control

CC(=NCC(=O)O)c1ccccc1
inactive: dose: 25.0 mg/kg/injection, schedule: Q04DX003 (ip), vehicle: saline 93 % of control | dose: 50.0 mg/kg/injection, schedule: Q04DX003 (ip), vehicle: saline 100 % of control | [12] 100 % of control

Cc1cccc(CCc2cccc(C)n2)n1
inactive: [12] 103 % of control | dose: 200.0 mg/kg/injection, schedule: Q04DX003 (ip), vehicle: saline 103 % of control | dose: 400.0 mg/kg/injection, schedule: Q04DX003 (ip), vehicle: saline 103 % of control

Nc1ncnc(N)c1NC(=O)c1ccc(CCCCc2ccccc2)cc1
inactive: [4] 104 % of control | [6] 96 % of control | [8] 92 % of control

BrCC[n+]1ccc(-c2cc[n+](CCBr)cc2)cc1
inactive: dose: 10.0 mg/kg/injection, schedule: Q01DX001 (ip), vehicle: Klucel (hydroxypropylcellulose) (HPC) 110 % of control | dose: 20.0 mg/kg/injection, schedule: Q01DX001 (ip), vehicle: Klucel (hydroxypropylcellulose) (HPC) 93 % of control | dose: 40.0 mg/kg/injection, schedule: Q01DX001 (ip), vehicle: Klucel (hydroxypropylcellulose) (HPC) 98 % of control

N#CCCCCCN=[N+]=[N-]
inactive: [1] 98 % of control | [2] 101 % of control

Cc1cc(CSc2ssc(=S)c2-c2ccccc2)c(CSc2ssc(=S)c2-c2ccccc2)cc1C
inactive: [9] 98 % of control | [10] 98 % of control | [11] 97 % of control

O=[N+]([O-])c1ccc(N2N=NC3C4CCC(C4)C32)cc1 (centres undefined)
inactive: [4] 93 % of control | [6] 91 % of control | [8] 96 % of control

COc1cccc2c1C(=O)c1c(O)c3c(c(O)c1C2=O)C[C@@](O)(/C(C)=N/NC(=O)c1cccc([N+](=O)[O-])c1)C[C@@H]3OC1CC(N)C(O)C(C)O1 (some centres undefined)
inactive: dose: 2.0 mg/kg/injection, schedule: Q01DX009 (ip), vehicle: water 121 % of control | dose: 4.0 mg/kg/injection, schedule: Q01DX009 (ip), vehicle: water 121 % of control | dose: 16.0 mg/kg/injection, schedule: Q01DX009 (ip), vehicle: water 98 % of control

From PubChem BioAssay AID256 (DTP/NCI, 2004)
